Experimental data published in US20140343049A1, “DIHYDROFURAN DERIVATIVES AS INSECTICIDAL COMPOUNDS” (SYNGENTA PARTICIPATIONS AG, priority 2011, published 2014).

Experiments:
Format in all cases: in vivo
[1] = test system: Spodoptera littoralis (Egyptian cotton leafworm); test: Spodoptera littoralis cotton leaf disc spray test; details: foliar, 72 h, cotton leaf discs sprayed at 200 ppm, 5 L1 larvae, mortality, feeding behavior, growth regulation 3 days after treatment
Description: Cotton leaf discs were placed on agar in a 24-well microtiter plate and sprayed with test solutions at an application rate of 200 ppm. After drying, the leaf discs were infested with 5 L1 larvae. The samples were checked for mortality, feeding behavior, and growth regulation 3 days after treatment (DAT).

[2] = test system: Myzus persicae (green peach aphid); test: Myzus persicae (sachet) mixed population test; details: 120 h, sucrose solution, application rate 12.5 ppm, mortality 5 days after infestation
Description: Test compounds were applied by pipette into 24 well plates and mixed with Sucrose solution. The plates were closed with a stretched Parafilm. A plastic stencil with 24 holes is placed onto the plate and infested pea seedlings were placed directly on the Parafilm. The infested plate is closed with a gel blotting paper and another plastic stencil and then turned upside down. 5 days after infestation the samples were checked on mortality. Application rate: 12.5 ppm.

[3] = test system: Heliothis virescens (tobacco budworm); test: Heliothis virescens egg test on artificial diet; details: 96 h, 200 ppm (concentration in well 18 ppm), eggs 0-24 h old, 4 days, egg mortality, larval mortality, growth regulation
Method: Eggs (0-24 h old) were placed in 24-well microtiter plate on artificial diet and treated with test solutions at an application rate of 200 ppm (concentration in well 18 ppm) by pipetting. After an incubation period of 4 days, samples were checked for egg mortality, larval mortality, and growth regulation.

[4] = test system: Thrips tabaci (onion thrips); test: Thrips tabaci sunflower leaf disc spray test; details: foliar, 168 h, sunflower leaf discs sprayed at 200 ppm, mixed ages, mortality after 7 days
Method: Sunflower leaf discs were placed on agar in a 24-well microtiter plate and sprayed with test solutions at an application rate of 200 ppm. […] After drying, the leaf discs were infested with a thrip population of mixed ages. After an incubation period of 7 days, samples were checked for mortality.

[5] = test system: Tetranychus urticae (two-spotted spider mite); test: Tetranychus urticae bean leaf disc spray test; details: foliar, 192 h, bean leaf discs sprayed at 200 ppm, mixed ages, egg, larval and adult mortality 8 days later
Description: Bean leaf discs on agar in 24-well microtiter plates were sprayed with test solutions at an application rate of 200 ppm. After drying, the leaf discs are infested with mite populations of mixed ages. 8 days later, discs are checked for egg mortality, larval mortality, and adult mortality. […]

[6] = test system: Diabrotica balteata (corn root worm); test: Diabrotica balteata L2 larvae test on artificial diet; details: 120 h, 200 ppm (concentration in well 18 ppm), 5 days, larval mortality and growth regulation
Outline: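 Artificial diet treated with test solution at 200 ppm or 12.5 ppm application rate (in-well concentration stated as 18 ppm), dried, then infested with 6-10 L2 larvae per well. Larval mortality and growth regulation scored after 5 days.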

[7] = test system: Plutella xylostella (diamond back moth); test: Plutella xylostella L2 larvae test on artificial diet; details: 144 h, 200 ppm (concentration in well 18 ppm), 6 days, larval mortality and growth regulation
Method: 24-well microtiter plate (MTP) with artificial diet was treated with test solutions at an application rate of 200 ppm (concentration in well 18 ppm) by pipetting. After drying, the MTPs were infested with L2 larvae (7-12 per well). After an incubation period of 6 days, samples were checked for larval mortality and growth regulation.

[8] = test system: Spodoptera littoralis (Egyptian cotton leaf worm); test: Spodoptera littoralis (systemic) test, compound in agar taken up by salad roots; details: 120 h, application rate 12.5 ppm, checked 5 days after infestation for mortality, repellent effect, feeding behavior, growth regulation
Description: (§1) Test compounds were applied by pipette into 24 well plates and mixed with agar. Salad seeds were placed on the agar and the multi well plate is closed by another plate which contains also agar. After 7 days the roots have absorbed the compound and the salad has grown into the lid plate. The salad leafs were now cut off into the lid plate. Spodoptera eggs were pipette through a plastic stencil on a humid gel blotting paper and the plate closed with it. The samples are checked for mortality, repellent effect, feeding behavior, and growth regulation 5 days after infestation. Application rate: 12.5 ppm
as §1, with “infestation.” for “infestation. Application rate: 12.5 ppm”

Cc1cc(C2=CC(c3cc(Cl)cc(Cl)c3)(C(F)(F)F)OC2)ccc1C(=O)NC1CSC1 (stereo not drawn) [Compound A2]
≥ 80%: pest or weed control at 200 ppm [1] | pest or weed control at 12.5 ppm [2] | pest or weed control at 200 ppm [3] | pest or weed control at 200 ppm [4] | pest or weed control at 200 ppm [5]

Cc1cc(C2=CC(c3cc(Cl)cc(Cl)c3)(C(F)(F)F)OC2)ccc1C(=O)NCc1ccc(S(C)(=O)=O)cc1 (stereo not drawn) [Compound A25]
≥ 80%: pest or weed control at 200 ppm [1] | pest or weed control at 200 ppm [6] | pest or weed control at 200 ppm [7] | pest or weed control at 12.5 ppm [2] | pest or weed control at 200 ppm [3] | pest or weed control at 200 ppm [5]

Cc1cc(C2=CC(c3cc(Cl)cc(Cl)c3)(C(F)(F)F)OC2)ccc1C(=O)NC1C[S+]([O-])C1 (stereo not drawn) [Compound A77]
≥ 80%: pest or weed control at 12.5 ppm [2] | pest or weed control at 200 ppm [4]

Cc1cc(C2=CC(c3cc(Cl)cc(Cl)c3)(C(F)(F)F)OC2)ccc1C(=O)NCC1CSC1 (stereo not drawn) [Compound A78]
≥ 80%: pest or weed control at 200 ppm [1] | pest or weed control at 200 ppm [6] | pest or weed control at 200 ppm [7] | pest or weed control at 12.5 ppm [2] | pest or weed control at 200 ppm [3] | pest or weed control at 200 ppm [4] | pest or weed control at 200 ppm [5]

Cc1cc(C2=CC(c3cc(Cl)cc(Cl)c3)(C(F)(F)F)OC2)ccc1C(=O)NCCC1CSC1 (stereo not drawn) [Compound A82]
≥ 80%: pest or weed control at 200 ppm [1] | pest or weed control at 200 ppm [6] | pest or weed control at 200 ppm [7] | pest or weed control at 12.5 ppm [2] | pest or weed control at 200 ppm [3] | pest or weed control at 200 ppm [4] | pest or weed control at 200 ppm [5]

Cc1cc(C2=CC(c3cc(Cl)cc(Cl)c3)(C(F)(F)F)OC2)ccc1C(=O)NCCC1CS(=O)(=O)C1 (stereo not drawn) [Compound A83]
≥ 80%: pest or weed control at 200 ppm [1] | pest or weed control at 200 ppm [6] | pest or weed control at 200 ppm [7] | pest or weed control at 12.5 ppm [2] | pest or weed control at 200 ppm [3] | pest or weed control at 200 ppm [5]

Cc1nc(C2=CC(c3cc(Cl)cc(Cl)c3)(C(F)(F)F)OC2)ccc1C(=O)NC1C[S+]([O-])C1 (stereo not drawn) [Compound C22]
≥ 80%: pest or weed control at 200 ppm [1] | pest or weed control at 200 ppm [6] | pest or weed control at 200 ppm [7] | pest or weed control at 12.5 ppm [2] | pest or weed control at 200 ppm [3] | pest or weed control at 200 ppm [4] | pest or weed control at 200 ppm [5]

Cc1cc(C2=CC(c3cc(Cl)cc(Cl)c3)(C(F)(F)F)OC2)ccc1C(=O)NCC(F)(F)F (stereo not drawn) [Compound D1]
≥ 80%: pest or weed control at 12.5 ppm [8] | pest or weed control at 200 ppm [4]

CCCCNC(=O)c1ccc(C2=CC(c3cc(Cl)cc(Cl)c3)(C(F)(F)F)OC2)cc1C (stereo not drawn) [Compound D3]
≥ 80%: pest or weed control at 12.5 ppm [2] | pest or weed control at 200 ppm [4] | pest or weed control at 200 ppm [5]

COCC(C)NC(=O)c1ccc(C2=CC(c3cc(Cl)cc(Cl)c3)(C(F)(F)F)OC2)cc1C (stereo not drawn) [Compound D4]
≥ 80%: pest or weed control at 12.5 ppm [2] | pest or weed control at 200 ppm [4] | pest or weed control at 200 ppm [5]

Cc1cc(C2=CC(c3cc(Cl)cc(Cl)c3)(C(F)(F)F)OC2)ccc1C(=O)NCc1ccccc1 (stereo not drawn) [Compound D9]
≥ 80%: pest or weed control at 200 ppm [1] | pest or weed control at 200 ppm [7] | pest or weed control at 12.5 ppm [2] | pest or weed control at 200 ppm [3] | pest or weed control at 200 ppm [4] | pest or weed control at 200 ppm [5]

Cc1cc(C2=CC(c3cc(Cl)cc(Cl)c3)(C(F)(F)F)OC2)ccc1C(=O)NCc1ccccc1F (stereo not drawn) [Compound D10]
≥ 80%: pest or weed control at 200 ppm [1] | pest or weed control at 200 ppm [6] | pest or weed control at 200 ppm [7] | pest or weed control at 12.5 ppm [2] | pest or weed control at 200 ppm [3] | pest or weed control at 200 ppm [4] | pest or weed control at 200 ppm [5]

Cc1cc(C2=CC(c3cc(Cl)cc(Cl)c3)(C(F)(F)F)OC2)ccc1C(=O)NC(C)c1ccccc1 (stereo not drawn) [Compound D11]
≥ 80%: pest or weed control at 200 ppm [6] | pest or weed control at 12.5 ppm [2] | pest or weed control at 200 ppm [4]

COc1ccc(CNC(=O)c2ccc(C3=CC(c4cc(Cl)cc(Cl)c4)(C(F)(F)F)OC3)cc2C)cc1 (stereo not drawn) [Compound D12]
≥ 80%: pest or weed control at 200 ppm [6] | pest or weed control at 12.5 ppm [2] | pest or weed control at 200 ppm [4]

Cc1cc(C2=CC(c3cc(Cl)cc(Cl)c3)(C(F)(F)F)OC2)ccc1C(=O)NCc1ccc(Cl)nc1 (stereo not drawn) [Compound D13]
≥ 80%: pest or weed control at 200 ppm [6] | pest or weed control at 12.5 ppm [2]

Cc1cc(C2=CC(c3cc(Cl)cc(Cl)c3)(C(F)(F)F)OC2)ccc1C(=O)Nc1cccc(F)c1 (stereo not drawn) [Compound D14]
≥ 80%: pest or weed control at 200 ppm [6] | pest or weed control at 12.5 ppm [2] | pest or weed control at 200 ppm [5]

Cc1cc(NC(=O)c2ccc(C3=CC(c4cc(Cl)cc(Cl)c4)(C(F)(F)F)OC3)cc2C)n(C)n1 (stereo not drawn) [Compound D16]
≥ 80%: pest or weed control at 200 ppm [6] | pest or weed control at 12.5 ppm [2] | pest or weed control at 200 ppm [4]

Cc1csc(NC(=O)c2ccc(C3=CC(c4cc(Cl)cc(Cl)c4)(C(F)(F)F)OC3)cc2C)n1 (stereo not drawn) [Compound D17]
≥ 80%: pest or weed control at 200 ppm [6] | pest or weed control at 12.5 ppm [2]

Cc1cc(C2=CC(c3cc(Cl)cc(Cl)c3)(C(F)(F)F)OC2)ccc1C(=O)NC1(C)CSC1 (stereo not drawn) [Compound D18]
≥ 80%: pest or weed control at 200 ppm [6] | pest or weed control at 12.5 ppm [2] | pest or weed control at 200 ppm [4]

CSCC(C)(C)NC(=O)c1ccc(C2=CC(c3cc(Cl)cc(Cl)c3)(C(F)(F)F)OC2)cc1C (stereo not drawn) [Compound D19]
≥ 80%: pest or weed control at 200 ppm [1] | pest or weed control at 200 ppm [6] | pest or weed control at 200 ppm [7] | pest or weed control at 12.5 ppm [2] | pest or weed control at 200 ppm [3] | pest or weed control at 200 ppm [5]

Cc1cc(C2=CC(c3cc(Cl)cc(Cl)c3)(C(F)(F)F)OC2)ccc1C(=O)NC1C[S+]([O-])C1 (stereo not drawn) [Compound D20]
≥ 80%: pest or weed control at 12.5 ppm [8] | pest or weed control at 200 ppm [6] | pest or weed control at 200 ppm [7]

Cc1cc(C2=CC(c3cc(Cl)cc(Cl)c3)(C(F)(F)F)OC2)ccc1C(=O)NC1CSC1 (stereo not drawn) [Compound D21]
≥ 80%: pest or weed control at 12.5 ppm [8] | pest or weed control at 200 ppm [6] | pest or weed control at 200 ppm [7]

Cc1cc(C2=CC(c3cc(Cl)cc(Cl)c3)(C(F)(F)F)OC2)ccc1C(=O)NC1CCC1 (stereo not drawn) [Compound D23]
≥ 80%: pest or weed control at 200 ppm [6] | pest or weed control at 200 ppm [7] | pest or weed control at 12.5 ppm [2] | pest or weed control at 200 ppm [4]

Cc1cc(C2=COC(c3cc(Cl)cc(Cl)c3)(C(F)(F)F)C2)ccc1C(=O)N[C@@H]1CON(CC(F)(F)F)C1=O (stereo partly drawn) [Compound D25, 4-[2-(3,5-dichlorophenyl)-2-(trifluoromethyl)-3H-furan-4-yl]-2-methyl-N-[(4R)-3-oxo-2-(2,2,2-trifluoroethyl)isoxazolidin-4-yl]benzamide]
≥ 80%: pest or weed control at 200 ppm [1] | pest or weed control at 200 ppm [6] | pest or weed control at 200 ppm [7] | pest or weed control at 12.5 ppm [2] | pest or weed control at 200 ppm [3] | pest or weed control at 200 ppm [4] | pest or weed control at 200 ppm [5]

N#Cc1cc(C2=CO[C@@](c3cc(Cl)cc(Cl)c3)(C(F)(F)F)C2)ccc1-n1cncn1 [H1*, 5-[(2S)-2-(3,5-dichlorophenyl)-2-(trifluoromethyl)-3H-furan-4-yl]-2-(1,2,4-triazol-1-yl)benzonitrile]
≥ 80%: pest or weed control at 200 ppm [6] | pest or weed control at 200 ppm [7] | pest or weed control at 12.5 ppm [2] | pest or weed control at 200 ppm [3] | pest or weed control at 200 ppm [4]
